Experimental data published in patent US20090215777A1, “Pyrimidine Derivatives As HSP90 Inhibitors” (Astex Therapeutics Ltd., priority 2005, published 2009).

Target: T1, human Hsp90α N-terminal domain (Homo sapiens, UniProt P07900)
T1 construct: Cloning, expression, and purification of the Human Hsp90α N-terminal domain were performed according to published methods; made in house
Assay: Isothermal titration calorimetry (ITC)
Assay type: binding
Settings: 25 mM Tris, 100 mM NaCl, 1 mM MgCl2, 1 mM TCEP, 5% DMSO, pH 7.4
Protocol: The ability of the compounds of the invention to bind to human Hsp90 proteins was determined using isothermal titration calorimetry.
Isothermal titration calorimetry (ITC) experiments were performed with a VP-ITC titration calorimeter (Microcal Inc., Northampton, Mass., USA). […] All solutions were filtered and degassed prior to a titration being carried out. The enthalpy change resulting from each injection of ligand was obtained through integration of the calorimetric signal. Data were analysed using Origin 7.0 (Microcal Software Inc., Northampton, Mass.). Heats of dilution were estimated using the final injections of each individual titration and subtracted before data fitting. Different ITC experimental formats were employed in order to obtain compound dissociation constants (Kd's) over a wide range of affinities. […] In this type of experiment the stoichiometry parameter (N) was locked at 1 for data fitting.

Kd	Compound
< 1000 nM	COc1cc(-c2cc(Cl)nc(N)n2)c(Cl)cc1Cl [Example 61, 4-Chloro-6-(2,4-dichloro-5-methoxy-phenyl)-pyrimidin-2-ylamine]
< 1000 nM	Nc1nc(Cl)cc(-c2ccc(O)cc2Cl)n1 [Example 64, 4-(2-Amino-6-chloro-pyrimidin-4-yl)-3-chloro-phenol]
< 10000 nM	COc1ccc(-c2ccccc2)c(OC)c1-c1cc(Cl)nc(N)n1 [Example 45, 4-Chloro-6-(2,4-dimethoxy-biphenyl-3-yl)-pyrimidin-2-ylamine]
< 1000 nM	Nc1nc(Cl)cc(-c2cc(O)c(Cl)cc2Cl)n1 [Example 77, 5-(2-Amino-6-chloro-pyrimidin-4-yl)-2,4-dichloro-phenol]
< 1000 nM	COc1ccc2ccccc2c1-c1cc(Cl)nc(N)n1 [Example 51, 4-Chloro-6-(2-methoxy-naphthalen-1-yl)-pyrimidin-2-ylamine]
< 1000 nM	COc1cccc(OC)c1-c1cc(Cl)nc(N)n1 [Example 4, 4-Chloro-6-(2,6-dimethoxy-phenyl)-pyrimidin-2-ylamine]
< 1000 nM	COc1ccc(Cl)c(-c2cc(Cl)nc(N)n2)c1 [Example 49, 4-Chloro-6-(2-chloro-5-methoxy-phenyl)-pyrimidin-2-ylamine]
< 1000 nM	CCN(CC)CCOc1cc(-c2cc(Cl)nc(N)n2)c(Cl)cc1Cl [Example 79, 4-Chloro-6-[2,4-dichloro-5-(2-diethylamino-ethoxy)-phenyl]-pyrimidin-2-yl-amine]
< 1000 nM	COc1ccc(-c2c(OC)ccc(Br)c2OC)c(OC)c1-c1cc(Cl)nc(N)n1 [Example 46, 4-(3′-Bromo-2,4,2′,6′-tetramethoxy-biphenyl-3-yl)-6-chloro-pyrimidin-2-ylamine]
< 1000 nM	CC(C)(C)OC(=O)NCCCOc1cccc(Cl)c1-c1cc(Cl)nc(N)n1 [Example 53, {3-[2-(2-Amino-6-chloro-pyrimidin-4-yl)-3-chloro-phenoxy]-propyl}-carbamic acid tert-butyl ester]
< 1000 nM	CC(C)(Oc1ccc(-c2cc(Cl)nc(N)n2)c(Cl)c1)C(=O)OCC1CCNCC1 [Example 83, 2-[4-(2-Amino-6-chloro-pyrimidin-4-yl)-3-chloro-phenoxy]-2-methyl-prop-ionic acid piperidin-4-ylmethyl ester]
< 1000 nM	Nc1nc(Cl)cc(-c2ccc(Cl)cc2Cl)n1 [Example 30, 4-Chloro-6-(2,4-dichloro-phenyl)-pyrimidin-2-yl-amine]
< 10000 nM	CCOc1ccc2ccccc2c1-c1cc(Cl)nc(N)n1 [Example 44, 4-Chloro-6-(2-ethoxy-naphthalen-1-yl)-pyrimidin-2-ylamine]
< 1000 nM	CCOC(=O)C(C)Oc1ccc(-c2cc(Cl)nc(N)n2)c(Cl)c1 (stereo not shown) [Example 67]
< 1000 nM	CC(C)(C)OC(=O)NCCOc1cccc(Cl)c1-c1cc(Cl)nc(N)n1 [Example 57]
< 1000 nM	Nc1nc(Cl)cc(-c2cc(OCCN3CCOCC3)c(Cl)cc2Cl)n1 [Example 80, 4-Chloro-6-[2,4-dichloro-5-(2-morpholin-4-yl-ethoxy)-phenyl]-pyrimidin-2-yl-amine]
< 1000 nM	CCOC(=O)C(C)(C)Oc1ccc(-c2cc(Cl)nc(N)n2)c(Cl)c1 [Example 68, 2-[4-(2-Amino-6-chloro-pyrimidin-4-yl)-3-chloro-phenoxy]-2-methyl-propionic acid ethyl ester]
< 1000 nM	COc1cc(OC)c(-c2cc(Cl)nc(N)n2)c(OC)c1 [Example 27, 4-Chloro-6-(2,4,6-trimethoxy-phenyl)-pyrimidin-2-yl-amine]
< 1000 nM	COc1cccc(-c2cc(Cl)nc(N)n2)c1OC [Example 70, 4-Chloro-6-(2,3-dimethoxy-phenyl)-pyrimidin-2-yl-amine]
< 1000 nM	CCOC(=O)COc1ccc(-c2cc(Cl)nc(N)n2)c(Cl)c1 [Example 66, [4-(2-Amino-6-chloropyrimidin-4-yl)-3-chloro-phenoxy]-acetic acid ethyl ester]
< 1000 nM	CC(C)Oc1ccc(-c2cc(Cl)nc(N)n2)c(Cl)c1 [Example 65, 4-Chloro-6-(2-chloro-4-isopropoxy-phenyl)-pyrimidin-2-ylamine]
< 1000 nM	Cc1cccc(-c2cc(Cl)nc(N)n2)c1Cl [Example 76, 4-Chloro-6-(2-chloro-3-methyl-phenyl)-pyrimidin-2-yl-amine]

Kd	Compound
< 10000 nM	CN(C)CCOc1ccc(-c2cc(Cl)nc(N)n2)c(Cl)c1 [Example 74, 4-Chloro-6-[2-chloro-4-(2-dimethylamino-ethoxy)-phenyl]-pyrimidin-2-yl amine]
< 1000 nM	CN(C)CCOc1cccc(Cl)c1-c1cc(Cl)nc(N)n1 [Example 55, 4-Chloro-6-[2-chloro-6-(2-dimethylamino-ethoxy)-phenyl]-pyrimidin-2-yl amine]
< 1000 nM	CC(C#N)Oc1ccc(-c2cc(Cl)nc(N)n2)c(Cl)c1 (stereo not shown) [Example 75, 2-[4-(2-Amino-6-chloro-pyrimidin-4-yl)-3-chloro-phenoxy]-propionitrile]
< 30000 nM	Nc1ncc(Br)c(-c2ccc(Cl)cc2Cl)n1 [Example 62, 5-Bromo-4-(2,4-dichloro-phenyl)-pyrimidin-2-ylamine]
< 1000 nM	Nc1nc(Cl)cc(-c2cc(OCc3ccccc3)c(Cl)cc2Cl)n1 [Example 78, 4-(5-Benzyloxy-2,4-dichloro-phenyl)-6-chloro-pyrimidin-2-yl-amine]
< 1000 nM	NC(=O)COc1cc(-c2cc(Cl)nc(N)n2)c(Cl)cc1Cl [Example 81, 2-[5-(2-Amino-6-chloro-pyrimidin-4-yl)-2,4-dichloro-phenoxy]-acetamide]
< 10000 nM	Nc1nccc(-c2ccc(Cl)cc2Cl)n1 [Example 60, 4-(2,4-Dichloro-phenyl)-pyrimidin-2-ylamine]
< 1000 nM	COc1ccc(-c2cc(Cl)nc(N)n2)c(Cl)c1 [Example 73, 4-Chloro-6-(2-chloro-4-methoxy-phenyl)-pyrimidin-2-ylamine]
< 30000 nM	COc1ccccc1-c1cc(C(F)F)nc(N)n1 [Example 58, 4-Difluoro-methyl-6-(2-methoxy-phenyl)-pyrimidin-2-ylamine]
< 10000 nM	COc1cccc(OCCN2CCCCC2)c1-c1cc(Cl)nc(N)n1 [Example 52, 4-Chloro-6-[2-methoxy-6-(2-piperidin-1-yl-ethoxy)-phenyl]-pyrimidin-2-ylamine]
< 1000 nM	COc1cccc(-c2cc(Cl)nc(N)n2)c1Cl [Example 69, 4-Chloro-6-(2-chloro-3-methoxy-phenyl)-pyrimidin-2-yl-amine]
< 1000 nM	COc1cc(Cl)cc(Cl)c1-c1cc(Cl)nc(N)n1 [Example 59, 4-Chloro-6-(2,4-dichloro-6-methoxy-phenyl)-pyrimidin-2-ylamine]
< 1000 nM	COc1cccc(OCC2CCOCC2)c1-c1cc(Cl)nc(N)n1 [Example 21, 4-Chloro-6-[2-methoxy-6-(tetrahydro-pyran-4-yl-methoxy)-phenyl]-pyrimidin-2-yl-amine]
< 1000 nM	CC(C)(C)Cc1cccc(-c2cc(Cl)nc(N)n2)c1Cl [Example 72, 4-Chloro-6-[2-chloro-3-(2,2-dimethyl-propyl)phenyl]-pyrimidin-2-yl-amine]
< 1000 nM	COc1cccc(OCCN2CCOCC2)c1-c1cc(Cl)nc(N)n1 [Example 48, 4-Chloro-6-[2-methoxy-6-(2-morpholin-4-yl-ethoxy)-phenyl]-pyrimidin-2-ylamine]
< 1000 nM	COc1c(CC(C)(C)C)cccc1-c1cc(Cl)nc(N)n1 [Example 71, 4-Chloro-6-[3-(2,2-dimethyl-propyl)-2-methoxy-phenyl]-pyrimidin-2-yl-amine]
< 1000 nM	NCCOc1cccc(Cl)c1-c1cc(Cl)nc(N)n1 [Example 56, 4-[2-(2-Amino-ethoxy)-6-chloro-phenyl]-6-chloro-pyrimidin-2-yl-amine]
< 1000 nM	CCOc1ccc(-c2cc(Cl)nc(N)n2)c(Cl)c1 [Example 29]
< 1000 nM	CC(C)(C)OC(=O)N1CCC(COC(=O)C(C)(C)Oc2ccc(-c3cc(Cl)nc(N)n3)c(Cl)c2)CC1 [Example 82, 4-{2-[4-(2-Amino-6-chloro-pyrimidin-4-yl)-3-chloro-phenoxy]-2-methyl-propionyloxy-methyl}-piperidine-1-carboxylic acid tert-butyl ester]
< 1000 nM	CN(C)CCCOc1cccc(Cl)c1-c1cc(Cl)nc(N)n1 [Example 54]
< 10000 nM	Nc1ncc(-c2cn[nH]c2)c(-c2ccc(Cl)cc2Cl)n1 [Example 63, 4-(2,4-Dichloro-phenyl)-5-(1H-pyrazol-4-yl)-pyrimidin-2-ylamine]
< 1000 nM	Nc1nc(Cl)cc(-c2ccncc2Cl)n1 [Example 50, 4-Chloro-6-(3-chloro-pyridin-4-yl)-pyrimidin-2-ylamine]

Compound	Kd
COc1cccc(OCC(C)C)c1-c1cc(Cl)nc(N)n1 [Example 47, 4-Chloro-6-(2-isobutoxy-6-methoxy-phenyl)-pyrimidin-2-ylamine]	< 1000 nM
COc1cccc(OC)c1-c1cc(C)nc(N)n1 [Example 1, 4-(2,6-Dimethoxy-phenyl)-6-methyl-pyrimidin-2-ylamine]	< 10000 nM
